test system: MV-4-11 (human, Acute Myeloid Leukemia cell line) cells; assay: Cell growth inhibition assay, GI50 of MV-4-11; format: cell-based; conditions: Homo sapiens, MV4-11, 72 h, MV-4-11 cells
Experimental: The anti-proliferative activity (cell growth inhibition assay) of the compounds according to the present invention against AML (Acute Myeloid Leukemia) cancer cells was measured. […] The lower the GI50 value, the higher the anti-proliferative activity.
A cell growth Inhibition assay was performed to investigate the rate of inhibition of cell proliferation by the compounds of the present invention. MV-4-11 (human, Acute Myeloid Leukemia cell line) cells were cultured in Iscove's modified Dulbecco's medium (IMDM) including 10% fetal bovine serum (FBS), 1× penicillin/streptomycin (10,000 units/ml Penicillin, […] Streptomycin in 0.85% NaCl). MV-4-11 cells were harvested with the IMDM and 5×10^4 cells/well were transferred to each well of 96-well culture plates (Nunc, #167008).
The compounds of Examples 1 to 5 were exposed to serial dilution and duplicated for each concentration. For the serial dilution, the compounds of the present invention were repeatedly diluted with the same volume of media onto 96-well assay block (costar, #3956). After the dilution, each compound was added to each well.
Also, the background absorbance was measured during the treatment with the test compounds by replacing the test compound with IMDM in the negative control plate. The plates were incubated for three days (72 hours) at 37 in the humidified incubator containing 5% CO2. On the last day, 20 µl of a CellTiter 96 Aqueous One Solution (Promega #G3581) was added to the culture in each well and the plates were incubated for a few hours at 37 in the humidified incubator containing 5% CO2. After the incubation, the absorbance of each cell was measured at 490 nm using an EnVision (Perkinelmer, USA).
The GI50 values were calculated using a Prism 3.0 program.

Compound | GI50 [nM]
C=CCN1CC(=O)N2[C@@H](Cc3ccc(O)cc3)C(=O)N(Cc3cccc4c(-c5ccc(C(=O)NNCc6ccccc6)cc5)cn(C)c34)C[C@@H]2N1C(=O)NCc1ccccc1 [Compound D-38] | 3.2
C=CCN1CC(=O)N2[C@@H](Cc3ccc(O)cc3)C(=O)N(Cc3cccc4c(-c5ccc(C(=O)NCCN(C)C)cc5)cn(C)c34)C[C@@H]2N1C(=O)NCc1ccccc1 [Compound D-39] | 1.2
C=CCN1CC(=O)N2[C@@H](Cc3ccc(O)cc3)C(=O)N(Cc3cccc4c(-c5cccc(C(=O)NCc6ccccc6)c5)cn(C)c34)C[C@@H]2N1C(=O)NCc1ccccc1 [Compound D-28] | 5.5
C=CCN1CC(=O)N2[C@@H](Cc3ccc(O)cc3)C(=O)N(Cc3cccc4c(C(=O)N5CCN(Cc6cccc(C)n6)CC5)cn(C)c34)C[C@@H]2N1C(=O)NCc1ccccc1 [Compound E-31] | 6
C=CCN1CC(=O)N2[C@@H](Cc3ccc(O)cc3)C(=O)N(Cc3cccc4c(-c5ccc(C(=O)NN6C(C)CNCC6C)cc5)cn(C)c34)C[C@@H]2N1C(=O)NCc1ccccc1 (stereo partly drawn) [Compound D-32] | 1.3
C=CCN1CC(=O)N2[C@@H](Cc3ccc(O)cc3)C(=O)N(Cc3cccc4c(-c5ccc(C(=O)NNCC(F)(F)F)cc5)cn(C)c34)C[C@@H]2N1C(=O)NCc1ccccc1 [Compound D-37] | 1.3
C=CCN1CC(=O)N2[C@@H](Cc3ccc(O)cc3)C(=O)N(Cc3cccc4c(C(=O)N5CCN(Cc6ccncc6)CC5)cn(C)c34)C[C@@H]2N1C(=O)NCc1ccccc1 [Compound E-30] | 14.4
C=CCN1CC(=O)N2[C@@H](Cc3ccc(O)cc3)C(=O)N(Cc3cccc4c(C(=O)N5CCN(C6CC6)CC5)cn(C)c34)C[C@@H]2N1C(=O)NCc1ccccc1 [Compound E-17] | 4.5
C=CCN1CC(=O)N2[C@@H](Cc3ccc(O)cc3)C(=O)N(Cc3cccc4c(C(=O)N5CCN(Cc6ccc(C)cc6)CC5)cn(C)c34)C[C@@H]2N1C(=O)NCc1ccccc1 [Compound E-27] | 13.5
C=CCN1CC(=O)N2[C@@H](Cc3ccc(O)cc3)C(=O)N(Cc3cccc4c(-c5ccc(NC(=O)N6CCN(C)CC6)cc5)cn(C)c34)C[C@@H]2N1C(=O)NCc1ccccc1 [Compound D-67] | 1.3
C=CCN1CC(=O)N2[C@@H](Cc3ccc(O)cc3)C(=O)N(Cc3cccc4c(-c5ccc(NC(=O)C6CCN(C(C)=O)CC6)cc5)cn(C)c34)C[C@@H]2N1C(=O)NCc1ccccc1 [Compound D-61] | 1.3
C=CCN1CC(=O)N2[C@@H](Cc3ccc(O)cc3)C(=O)N(Cc3cccc4c(-c5ccc(C(=O)NN(C)C)cc5)cn(C)c34)C[C@@H]2N1C(=O)NCc1ccccc1 [Compound D-36] | 1.2
C=CCN1CC(=O)N2[C@@H](Cc3ccc(O)cc3)C(=O)N(Cc3cccc4c(-c5ccc(C(=O)N6CCN(C)CC6)cc5)cn(C)c34)C[C@@H]2N1C(=O)NCc1ccccc1 [Compound D-3] | 0.1
C=CCN1CC(=O)N2[C@@H](Cc3ccc(O)cc3)C(=O)N(Cc3cccc4c(-c5ccc(NC(=O)CCCNCC(N)=O)cc5)cn(C)c34)C[C@@H]2N1C(=O)NCc1ccccc1 [Compound D-71] | 1.9
C=CCN1CC(=O)N2[C@@H](Cc3ccc(O)cc3)C(=O)N(Cc3cccc4c(-c5ccc(C(=O)NC)o5)cn(C)c34)C[C@@H]2N1C(=O)NCc1ccccc1 [Compound D-101] | 5.8
C=CCN1CC(=O)N2[C@@H](Cc3ccc(O)cc3)C(=O)N(Cc3cccc4c(-c5cccc(C(=O)NC6CC6)c5)cn(C)c34)C[C@@H]2N1C(=O)NCc1ccccc1 [Compound D-29] | 1.3
C=CCN1CC(=O)N2[C@@H](Cc3ccc(O)cc3)C(=O)N(Cc3cccc4c(-c5ccc(C(=O)NC6CCN(C(C)C)CC6)o5)cn(C)c34)C[C@@H]2N1C(=O)NCc1ccccc1 [Compound D-104] | 6.3
C=CCN1CC(=O)N2[C@@H](Cc3ccc(O)cc3)C(=O)N(Cc3cccc4c(-c5ccc(NC(=O)CCCN)cc5)cn(C)c34)C[C@@H]2N1C(=O)NCc1ccccc1 [Compound D-70] | 4.4
C=CCN1CC(=O)N2[C@@H](Cc3ccc(O)cc3)C(=O)N(Cc3cccc4c(-c5ccc(NC(=O)C6CCN(C)CC6)cc5)cn(C)c34)C[C@@H]2N1C(=O)NCc1ccccc1 [Compound D-62] | 1.3
C=CCN1CC(=O)N2[C@@H](Cc3ccc(O)cc3)C(=O)N(Cc3cccc4c(-c5ccc(NC(=O)Nc6ccc(N7CCN(C)CC7)nc6)cc5)cn(C)c34)C[C@@H]2N1C(=O)NCc1ccccc1 [Compound D-78] | 1.5
C=CCN1CC(=O)N2C(CN(Cc3cccc4c(-c5ccc(NC(=O)C6CCN(C)CC6)cc5)cn(C)c34)C(=O)[C@@H]2Cc2ccc(O)cc2)N1C(=O)NCc1ccccc1 (stereo partly drawn) [Compound D-60] | 1.1

Now from value to molecule:

GI50 [nM] | Compound
8 | C=CCN1CC(=O)N2C(CN(Cc3cccc4c(C(=O)Nc5ccc(O)cc5)cn(C)c34)C(=O)[C@@H]2Cc2ccc(O)cc2)N1C(=O)NCc1ccccc1 (stereo partly shown) [Compound G-2]
4.5 | C=CCN1CC(=O)N2[C@@H](Cc3ccc(O)cc3)C(=O)N(Cc3cccc4c(C(=O)NCc5cccc(C)n5)cn(C)c34)C[C@@H]2N1C(=O)NCc1ccccc1 [Compound F-44]
1.7 | C=CCN1CC(=O)N2C(CN(Cc3cccc4c(C(=O)Nc5ccc(N(C)CCCO)nc5)cn(C)c34)C(=O)[C@@H]2Cc2ccc(O)cc2)N1C(=O)NCc1ccccc1 (stereo partly shown) [Compound G-20]
10.4 | C=CCN1CC(=O)N2[C@@H](Cc3ccc(O)cc3)C(=O)N(Cc3cccc4c(C(=O)N(C)CCNC5CC5)cn(C)c34)C[C@@H]2N1C(=O)NCc1ccccc1 [Compound F-11]
16.4 | C=CCN1CC(=O)N2[C@@H](Cc3ccc(O)cc3)C(=O)N(Cc3cccc4c(C(=O)N5CCN(c6ccccc6)CC5)cn(C)c34)C[C@@H]2N1C(=O)NCc1ccccc1 [Compound E-37]
17.2 | C=CCN1CC(=O)N2[C@@H](Cc3ccc(O)cc3)C(=O)N(Cc3cccc4c(C(=O)N(C)Cc5ccncc5)cn(C)c34)C[C@@H]2N1C(=O)NCc1ccccc1 [Compound F-40]
6.9 | C=CCN1CC(=O)N2[C@@H](Cc3ccc(O)cc3)C(=O)N(Cc3cccc4c(C(=O)N5CCN6CCN(CC7CCC7)CC6C5)cn(C)c34)C[C@@H]2N1C(=O)NCc1ccccc1 (stereo partly shown) [Compound E-49]
1.7 | C=CCN1CC(=O)N2C(Cc3ccc(O)cc3)C(=O)N(Cc3cccc4c(C(=O)Nc5ccc(NCC)nc5)cn(C)c34)CC2N1C(=O)NCc1ccccc1 (stereo not shown) [Compound G-16]
1.9 | C=CCN1CC(=O)N2[C@@H](Cc3ccc(O)cc3)C(=O)N(Cc3cccc4c(C(=O)N(C)CCCN5CCN(C)CC5)cn(C)c34)C[C@@H]2N1C(=O)NCc1ccccc1 [Compound F-31]
1.7 | C=CCN1CC(=O)N2[C@@H](Cc3ccc(O)cc3)C(=O)N(Cc3cccc4c(C(=O)N(C)Cc5cccc(C)n5)cn(C)c34)C[C@@H]2N1C(=O)NCc1ccccc1 [Compound F-45]
1.2 | C=CCN1CC(=O)N2[C@@H](Cc3ccc(O)cc3)C(=O)N(Cc3cccc4c(C(=O)Nc5ccc(N6CCC(N(C)C)CC6)nc5)cn(C)c34)C[C@@H]2N1C(=O)NCc1ccccc1 [Compound G-45]
9.1 | C=CCN1CC(=O)N2[C@@H](Cc3ccc(O)cc3)C(=O)N(Cc3cccc4c(C(=O)NCc5ccccn5)cn(C)c34)C[C@@H]2N1C(=O)NCc1ccccc1 [Compound F-42]

same assay, conditions: MV-4-11 cells, 72 hours; read-out: MV4-11 GI50

GI50 [nM] | Compound
18.4 | C=CCN1CC(=O)N2[C@@H](Cc3ccc(O)cc3)C(=O)N(Cc3cccc4c(C(=O)N5CCN(Cc6ccccn6)CC5)cn(C)c34)C[C@@H]2N1C(=O)NCc1ccccc1 [Compound E-29]

— patent US8940739B2, “Compound of a reverse-turn mimetic and a production method and use therefor” (JW Pharmaceutical Corporation, priority 2010, dated 2015)
